Measured values published in PubChem BioAssay AID1918943 (Molecular Pharmacology Branch, DTP, NCI, 2023).

Test system: 855422-203-R-J1-PDC complex spheroid viability
Assay: Anticancer human tumor 855422-203-R-J1-PDC patient-derived bladder carcinoma cell line growth inhibition
Conditions: for IC50: curve of first compound; for viability, T/C: stronger effect = lower value
How it was run: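 Drug combinations with the LSD1 inhibitor iadademstat tested on tumor cells co-cultured as spheroids with endothelial cells and mesenchymal stem cells. Concentrations descended in half-log increments from clinical Cmax or 10 microM.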

[1] = second compound 0.1 µM, first compound 0.000316 µM
[2] = second compound 0.1 µM, first compound 0.001 µM
[3] = second compound 0.1 µM, first compound 0.00316 µM
[4] = second compound 0.1 µM, first compound 0.01 µM
[5] = second compound 0.1 µM, first compound 0.0316 µM
[6] = second compound 0.1 µM, first compound 0.1 µM
[7] = second compound 0.316 µM, first compound 0.000316 µM
[8] = second compound 0.316 µM, first compound 0.001 µM
[9] = second compound 0.316 µM, first compound 0.00316 µM
[10] = second compound 0.316 µM, first compound 0.01 µM
[11] = second compound 0.316 µM, first compound 0.0316 µM
[12] = second compound 0.316 µM, first compound 0.1 µM
[13] = second compound 1 µM, first compound 0.000316 µM
[14] = second compound 1 µM, first compound 0.001 µM
[15] = second compound 1 µM, first compound 0.00316 µM
[16] = second compound 1 µM, first compound 0.01 µM
[17] = second compound 1 µM, first compound 0.0316 µM
[18] = second compound 1 µM, first compound 0.1 µM
[19] = second compound 3.16 µM, first compound 0.000316 µM
[20] = second compound 3.16 µM, first compound 0.001 µM
[21] = second compound 3.16 µM, first compound 0.00316 µM
[22] = second compound 3.16 µM, first compound 0.01 µM
[23] = second compound 3.16 µM, first compound 0.0316 µM
[24] = second compound 3.16 µM, first compound 0.1 µM
[25] = second compound 10 µM, first compound 0.000316 µM
[26] = second compound 10 µM, first compound 0.001 µM
[27] = second compound 10 µM, first compound 0.00316 µM
[28] = second compound 10 µM, first compound 0.01 µM
[29] = second compound 10 µM, first compound 0.0316 µM
[30] = second compound 10 µM, first compound 0.1 µM
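Also: drug exposure lasted 7 days starting on day 3 after seeding.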
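For viability, T/C in this document: luminescence viability as percent of DMSO vehicle wells = 100%.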

Work on Nc1ccccc1NC(=O)c1ccc(CNC(=O)OCc2cccnc2)cc1 + NC1CC1c1ccc(-c2cccc(O)c2)cc1 yielded an IC50 (second compound 0.1 µM) of 1220 nM, an IC50 (second compound 0.316 µM) of 1300 nM and an IC50 (second compound 1 µM) of 1070 nM. It also gave an IC50 (second compound 3.16 µM) of 993 nM, an IC50 (second compound 10 µM) of 1030 nM and a viability, T/C (second compound 0.1 µM, first compound 0.00949 µM) of 90.3%. The viability, T/C (second compound 0.1 µM, first compound 0.03 µM) was 91.2%, the viability, T/C (second compound 0.1 µM, first compound 0.0949 µM) was 98.5% and the viability, T/C (second compound 0.1 µM, first compound 0.3 µM) was 97.8%. The viability, T/C (second compound 0.1 µM, first compound 0.949 µM) was 60.8%, the viability, T/C (second compound 0.1 µM, first compound 3 µM) was 11.8% and the viability, T/C (second compound 0.316 µM, first compound 0.00949 µM) was 95.3%. It also gave a viability, T/C (second compound 0.316 µM, first compound 0.03 µM) of 92.6%, a viability, T/C (second compound 0.316 µM, first compound 0.0949 µM) of 104% and a viability, T/C (second compound 0.316 µM, first compound 0.3 µM) of 96.4%. It also gave a viability, T/C (second compound 0.316 µM, first compound 0.949 µM) of 65.9%, a viability, T/C (second compound 0.316 µM, first compound 3 µM) of 7.62% and a viability, T/C (second compound 1 µM, first compound 0.00949 µM) of 89.4%. The viability, T/C (second compound 1 µM, first compound 0.03 µM) was 90.4%, the viability, T/C (second compound 1 µM, first compound 0.0949 µM) was 85.9% and the viability, T/C (second compound 1 µM, first compound 0.3 µM) was 82.8%. The viability, T/C (second compound 1 µM, first compound 0.949 µM) was 54.7%, the viability, T/C (second compound 1 µM, first compound 3 µM) was 6.8% and the viability, T/C (second compound 3.16 µM, first compound 0.00949 µM) was 87.9%. It also gave a viability, T/C (second compound 3.16 µM, first compound 0.03 µM) of 86.6%, a viability, T/C (second compound 3.16 µM, first compound 0.0949 µM) of 91% and a viability, T/C (second compound 3.16 µM, first compound 0.3 µM) of 90.2%. For the same compound, the viability, T/C (second compound 3.16 µM, first compound 0.949 µM) was 51.9%, the viability, T/C (second compound 3.16 µM, first compound 3 µM) was 5.73% and the viability, T/C (second compound 10 µM, first compound 0.00949 µM) was 98.7%. It also gave a viability, T/C (second compound 10 µM, first compound 0.03 µM) of 91.3%, a viability, T/C (second compound 10 µM, first compound 0.0949 µM) of 91.1% and a viability, T/C (second compound 10 µM, first compound 0.3 µM) of 87.4%. For the same compound, the viability, T/C (second compound 10 µM, first compound 0.949 µM) was 53.5% and the viability, T/C (second compound 10 µM, first compound 3 µM) was 2.03%.
Cn1ncnc1C1c2n[nH]c(=O)c3cc(F)cc(c23)NC1c1ccc(F)cc1 (stereo not given) + NC1CCC(NC2CC2c2ccccc2)CC1 gave an IC50 (second compound 0.1 µM) greater than 100 nM, an IC50 (second compound 0.316 µM) greater than 100 nM and an IC50 (second compound 1 µM) greater than 100 nM. It also gave an IC50 (second compound 3.16 µM) greater than 100 nM, an IC50 (second compound 10 µM) greater than 100 nM and a viability, T/C [1] of 104%. For the same compound, the viability, T/C [2] was 94.4%, the viability, T/C [3] was 97.1% and the viability, T/C [4] was 86.5%. For the same compound, the viability, T/C [5] was 78%, the viability, T/C [6] was 77.5% and the viability, T/C [7] was 90%. For the same compound, the viability, T/C [8] was 92.4%, the viability, T/C [9] was 84.3% and the viability, T/C [10] was 83.9%. For the same compound, the viability, T/C [11] was 90.7%, the viability, T/C [12] was 82.3% and the viability, T/C [13] was 88%. It also gave a viability, T/C [14] of 86.1%, a viability, T/C [15] of 109% and a viability, T/C [16] of 86.2%. It also gave a viability, T/C [17] of 92.9%, a viability, T/C [18] of 81.3% and a viability, T/C [19] of 89.4%. For the same compound, the viability, T/C [20] was 97%, the viability, T/C [21] was 109% and the viability, T/C [22] was 78.2%. It also gave a viability, T/C [23] of 77.4%, a viability, T/C [24] of 74.8% and a viability, T/C [25] of 82.7%. For the same compound, the viability, T/C [26] was 78.5%, the viability, T/C [27] was 101% and the viability, T/C [28] was 70.6%. For the same compound, the viability, T/C [29] was 74.6% and the viability, T/C [30] was 69.1%.
With CC1COCCN1c1cc(-c2ccnn2C)c2ccnc(-c3ccn[nH]3)c2n1 (stereo not given) + NC1CC1c1ccc(-c2cccc(O)c2)cc1 the IC50 (second compound 0.1 µM) was 131 nM, the IC50 (second compound 0.316 µM) was 102 nM and the IC50 (second compound 1 µM) was 94.7 nM. It also gave an IC50 (second compound 3.16 µM) of 106 nM, an IC50 (second compound 10 µM) of 77.5 nM and a viability, T/C [3] of 111%. The viability, T/C [4] was 101%, the viability, T/C [5] was 100% and the viability, T/C [6] was 54.5%. For the same compound, the viability, T/C (second compound 0.1 µM, first compound 0.316 µM) was 34.8%, the viability, T/C (second compound 0.1 µM, first compound 1 µM) was 35.5% and the viability, T/C [9] was 102%. For the same compound, the viability, T/C [10] was 93%, the viability, T/C [11] was 99.7% and the viability, T/C [12] was 50.2%. It also gave a viability, T/C (second compound 0.316 µM, first compound 0.316 µM) of 35%, a viability, T/C (second compound 0.316 µM, first compound 1 µM) of 31% and a viability, T/C [15] of 94.7%. For the same compound, the viability, T/C [16] was 97.8%, the viability, T/C [17] was 89% and the viability, T/C [18] was 48.3%. It also gave a viability, T/C (second compound 1 µM, first compound 0.316 µM) of 30.8%, a viability, T/C (second compound 1 µM, first compound 1 µM) of 33.9% and a viability, T/C [21] of 91.8%. The viability, T/C [22] was 99.5%, the viability, T/C [23] was 94.7% and the viability, T/C [24] was 51%. The viability, T/C (second compound 3.16 µM, first compound 0.316 µM) was 30.1%, the viability, T/C (second compound 3.16 µM, first compound 1 µM) was 29.5% and the viability, T/C [27] was 90.7%. For the same compound, the viability, T/C [28] was 90.5%, the viability, T/C [29] was 80.9% and the viability, T/C [30] was 41.2%. For the same compound, the viability, T/C (second compound 10 µM, first compound 0.316 µM) was 27.1% and the viability, T/C (second compound 10 µM, first compound 1 µM) was 26.1%.
CC(C)CC(NC(=O)CNC(=O)c1cc(Cl)ccc1Cl)B1OC(=O)CC(CC(=O)O)(C(=O)O)O1 (stereo not given) + NC1CCC(NC2CC2c2ccccc2)CC1 was tested, and the IC50 (second compound 0.1 µM) was 1.8 nM, the IC50 (second compound 0.316 µM) was 1.7 nM and the IC50 (second compound 1 µM) was 1.67 nM. It also gave an IC50 (second compound 3.16 µM) of 1.63 nM, an IC50 (second compound 10 µM) of 1.52 nM and a viability, T/C [1] of 95.9%. The viability, T/C [2] was 89.3%, the viability, T/C [3] was 12.2% and the viability, T/C [4] was 1.62%. The viability, T/C [5] was 0.03%, the viability, T/C [6] was 0.09% and the viability, T/C [7] was 100%. The viability, T/C [8] was 90.4%, the viability, T/C [9] was 3.11% and the viability, T/C [10] was 1.91%. The viability, T/C [11] was 0.02%, the viability, T/C [12] was 0.09% and the viability, T/C [13] was 91.9%. For the same compound, the viability, T/C [14] was 87%, the viability, T/C [15] was 3.87% and the viability, T/C [16] was 0.69%. For the same compound, the viability, T/C [17] was 0.02%, the viability, T/C [18] was 0.1% and the viability, T/C [19] was 89.8%. The viability, T/C [20] was 85.3%, the viability, T/C [21] was 2.25% and the viability, T/C [22] was 0.69%. For the same compound, the viability, T/C [23] was 0.04%, the viability, T/C [24] was 0.1% and the viability, T/C [25] was 77.6%. It also gave a viability, T/C [26] of 76.9%, a viability, T/C [27] of 2.8% and a viability, T/C [28] of 0.29%. The viability, T/C [29] was 0.12% and the viability, T/C [30] was 3.15%.
